Experimental findings from US7943641B2, “7-((1H-imidazol-4-yl)methyl)-5,6,7,8-tetrahydroquinoline” (Allergan, Inc., priority 2006, dated 2011) are described below.

In experiment [1] the test system is IOP in the hypertensive eye. The experiment is described as follows: Telemetry IOP model (telemetrized primate model). The experiment is classed as in vivo, Cynomolgus monkeys (macaca fascicularis). Here is the method:
Cynomolgus (macaca fascicularis) monkeys weighing 3-5 kg with unilateral ocular hypertension in the right eye (OD) are used. Sustained elevated IOP is created by circumferential argon laser photocoagulation (Zeiss Visulas 532) of the mid-trabecular meshwork according to the method of Gaasterland and Kupfer (5). IOPs are assessed at T=−0.1, 0, 1, 2, 4, and 6, hours with an optional reading at 24 hours using an applanation pneumatonometer (Model 30 Classic, mentor Co). A drop of proparacaine (Allergan, Inc.) is instilled into the eyes just prior to IOP measurements. Monkeys are chaired and conditioned for tonometry for months before initiation of the study. Results are averaged from the 2 hr to the 6 hr time points (averages for each animal are calculated and the group mean determined) in an effort to simplify and standardize the data and include a comparison of sustained responses. Depending on the design of the study, either a paired or unpaired Student's t test is done. P<0.05 is considered significant.
Telemetry IOP model. Cynomolgus monkeys (3-5 kg) are made unilaterally ocular hypertensive by argon laser as noted above. The telemetry implant procedure is performed following elevation of IOP. Briefly, the scalp is prepared for aseptic surgery, followed by a 4 cm incision and tissue blunt-dissection to form a pocket in the underlying fascia to contain the pressure transducer. The catheter from the transducer is then guided subcutaneously to the orbit, and inserted into the vitreous cavity of the glaucoma eye through a small opening in the pars plana which is sutured closed and fixed with tissue adhesive. Receivers are placed into the animal cages and connected to a computer running Dataquest software for data capture. Animals are housed in a 12 hours light, 12 hours dark cycle: 6:00 AM ON, 6:00 PM OFF. Animals are used in drug studies following recovery from the surgical procedure which takes 2 weeks to 1 month. Dosing is done by transferring animals to restraining chairs. Animals are dosed without the aid of a sedative. […]

The target of another experiment is T1, α2A adrenergic receptor (Homo sapiens, UniProt P08913).
T1 construct: expressed in transfected cells; host or cells: NIH-3T3 cells
T1 sequence (P08913 1-465): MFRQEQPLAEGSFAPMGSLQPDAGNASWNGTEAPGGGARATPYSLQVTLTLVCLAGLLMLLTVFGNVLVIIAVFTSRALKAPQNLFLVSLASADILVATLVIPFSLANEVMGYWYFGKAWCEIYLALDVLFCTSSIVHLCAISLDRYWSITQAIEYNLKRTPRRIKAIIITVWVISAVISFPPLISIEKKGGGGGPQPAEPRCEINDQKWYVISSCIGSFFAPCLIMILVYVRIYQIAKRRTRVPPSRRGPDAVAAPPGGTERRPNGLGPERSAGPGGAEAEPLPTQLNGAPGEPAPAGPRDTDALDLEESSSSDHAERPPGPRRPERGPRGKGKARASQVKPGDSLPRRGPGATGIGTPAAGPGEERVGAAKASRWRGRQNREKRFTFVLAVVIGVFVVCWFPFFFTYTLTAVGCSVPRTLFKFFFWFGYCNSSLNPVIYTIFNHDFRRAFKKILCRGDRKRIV
The experiment is described as follows: RSAT (Receptor Selection and Amplification Technology) assay, α2A. The experiment is classed as cell-based. As to conditions: NIH-3T3 cells cotransfected with receptor and G protein. As for the experimental part: Incubations continue 72-96 hr at 37° C.

Where a name gives a salt, the structure may show the parent alone.

Take `c1cnc2c(c1)CCC(Cc1c[nH]cn1)C2` (racemic) [racemic mixture, 7-(1H-Imidazol-4-ylmethyl)-5,6,7,8-tetrahydro-quinoline dihydrochloride]: the “% IOP decrease from baseline in the hypertensive eye” value (“% IOP decrease from baseline” below) in experiment [1] (dose 0.30%) amounted to 30%. At α2A adrenergic receptor, this molecule yielded an EC50 of 3.9 nM.
Turning to `c1cnc2c(c1)CCC(Cc1c[nH]cn1)C2` (single isomer, unassigned; (+)) [(+) enantiomer, (+)-7-(1H-imidazol-4-ylmethyl)-5,6,7,8-tetrahydro-quinoline dihydrochloride], the “% IOP decrease from baseline” value in experiment [1] (dose 0.15%) is reported as 30%. Besides, at α2A adrenergic receptor, it took 2.9 nM to reach a half-maximal effect (EC50).
For the molecule `c1cnc2c(c1)CCC(Cc1c[nH]cn1)C2` (single isomer, unassigned; (-)) [(−) enantiomer, (−) 7-((1H-imidazol-4-yl)methyl)-5,6,7,8-tetrahydroquinoline], the “% IOP decrease from baseline” value in experiment [1] (dose 0.30%) was found to be 0%. For the same molecule, the EC50 at α2A adrenergic receptor turned out to be 58.4 nM.

By EC50 is commonly meant the concentration that produces a half-maximal response. A higher EC50 goes with lower potency in that assay.
